“Also recorded” adds a separate entry of the source. Where two headings read alike, the source gives them in different places.

The inhibition is how much of the control response was suppressed. Read a high inhibition as a response far below the control. One may read the IC50 as the point on the concentration scale where inhibition reaches its midpoint.

Assay [1] deals with T1, TLK1 (Homo sapiens, UniProt Q9UKI8).
T1 construct: proprietary tag (Ambit); purchased Ambit, Inc
Description: KINOMEscan competition binding assay, TLK1. The source says: (§1) CID-2858522 is not a potent protein kinase inhibitor. Protein kinases play critical roles in NF-κB activation. PKCs are proximal kinases in the NF-κB pathways activated by PMA/Ionomycin and by T- and B-cell antigen receptors, while the IKKs are distal kinases operating in the terminal segments of these and other NF-κB activation pathways. We therefore tested whether CID-2858522 inhibits members of these kinase families by in vitro kinase assays. For these experiments, we tested PKC-beta and PKC-theta (the PKC family members implicated in TCR/BCR signaling), and IKK-beta (a component of the IKK complex) (FIG. 6). […] In addition to assessing these three kinases by conventional in vitro kinase assays, a kinome screen was performed using a high throughput screening method, KINOMEscan™, which is an active-site dependent competition binding assay in which human kinases of interest are fused to a proprietary tag (Ambit). The amount of kinase bound to an immobilized, active-site directed ligand is measured in the presence and absence of the test compound. […] Thus, CID-2858522 inhibits none of the protein kinases previously implicated in regulating NF-κB.
(§2) In Vitro Kinase Assays. PKC-beta, PKC-theta and IKK-beta in vitro kinase assays were performed using the HTScan Kinase Assay Kit (Cell Signaling, Danvers, Mass.) according to manufacturer's protocols. […]

The subject of assay [2] is LPS (TLR4 agonist) induced IL-6 production. Briefly: IL-6 production by THP.1 monocytes stimulated with LPS. Format: cell-based. Particulars: listed as CID-2858522. The source says:
(§3) FIG. 1 is a flow chart of screening and counter-screenings for selective inhibitors of antigen-receptor induced NF-κB pathway. A total of 114,889 compounds were screened. From a screen of 53,280 commercially available compounds (left column), 519 hits were obtained, of which 248 reconfirmed using the same primary screening assay. […] From these 11 active compounds, one hit, CID-2858522, inhibited PMA/Ionomycin-induced production of cytokine IL-8 by the HEK293 cell line. CID-2858522 was then characterized (right column). PDB was substituted for PMA to confirm suppression of an alternative PKC activator. Pathway selectivity was assessed using panels of cell lines, starting with HEK293 cells in which each of the remaining NF-κB activation pathways was stimulated, showing inhibition only of PMA/Ionomycin-induced NF-κB reporter gene activity (panel 1). […]

For assay [3], the system named is PMA/Ionomycin-induced NF-κB reporter gene activity. Briefly: NF-κB luciferase reporter gene assay, PMA/Ionomycin-stimulated HEK293-NF-κB-luc cells. Format: cell-based. From the text: The strategy for compound library screening entailed using phorbol ester (phorbol myristic acetate [PMA]) and Ca^2+-ionophore Ionomycin to achieve PKC activation, mimicking the initiating events in the antigen receptor pathway. For convenience, we used HEK293 epithelial cells, in which it has previously been shown by siRNA-mediated gene silencing and transfection of dominant-negative mutants that PMA/Ionomycin-induced NF-κB activation is dependent on CARMA1, Bcl-10, and MALT. HEK293 cells were stably transfected with a luciferase reporter gene driven by a NF-κB responsive promoter, and the responsiveness of this integrated promoter to various NF-κB inducing stimuli was confirmed, including PMA/Ionomycin and TNF. Using these cells, 96- and 384-well plate-based high throughput screening (HTS) assays were established, with good assay performance characteristics (Z′>0.5) (PubChem AID=1384). We initially screened 53,280 chemical compounds at an average concentration of 5 μM, of which 519 primary hits were obtained (based on cut-off of 50% inhibition). Of these, 248 confirmed upon repeat testing (FIG. 1).
Cell engineering. HEK293 cells were co-transfected with pUC13-4xNFκB-Luc and p-TK-puromycin-resistance plasmids. Stable clones were selected by culture in Dulbecco's Modified Eagle's Media (InVitrogen) supplemented with 10% heat-inactivated fetal bovine serum (FBS) (Hyclone), 1% v/v penicillin-streptomycin (InVitrogen) containing 1 μg/mL puromycin. Individual clones were tested for responsiveness to PMA/Ionomycin- and to TNF-induced NF-κB reporter gene activity, and a clone was selected for HTS.
HTS. NF-κB-luciferase expressing HEK293 cells were seeded at […] per well in white 96 well plates (Greiner Bio-One) in 90 μl of DMEM and incubated overnight. 10 μl of compound-containing solution was added to each well (final 1.5 μg/mL in 1% DMSO) using a liquid handler (Biomek™ FX; Beckman Coulter). After 2 h incubation, cells were stimulated using 11 μl of a PMA (final 100 ng/mL; Calbiochem) and ionomycin (final 50 ng/mL; Calbiochem) in DMEM. Cell plates were incubated for 16 h before media was removed and 40 μl of 0.5× passive lysis buffer (Promega Corp.) was added to cell plates. Plates were allowed to stand at room temperature for at least 15 minutes before adding 40 μl of 0.125× luciferin substrate (Promega Corp.) to each well. Plates were analyzed within 30 seconds with a Criterion Analyst™ using the luminescence method (0.1 second read/well).
Several compounds synthesized by the methods described herein were tested for their efficacy at inhibiting Nf-κB activation.
In general terms: A reporter such as luciferase makes a cellular process visible.

In assay [4] the test system is 353 protein kinases. Briefly: KINOMEscan kinome screen, panel of 353 protein kinases. Format: binding, human. Particulars: 10 μM, of 353 protein kinases surveyed.
Excerpt: as §1, §2

Assay [5] relates to Anti-Lymphotoxin-β induced NF-κB luciferase activity. Description: NF-κB luciferase in HeLa cells induced by anti-Lymphotoxin-β receptor. Format: cell-based. Particulars: listed as CID-2858522.
Excerpt: as §3

T1 sequence (Q9UKI8 whole entry): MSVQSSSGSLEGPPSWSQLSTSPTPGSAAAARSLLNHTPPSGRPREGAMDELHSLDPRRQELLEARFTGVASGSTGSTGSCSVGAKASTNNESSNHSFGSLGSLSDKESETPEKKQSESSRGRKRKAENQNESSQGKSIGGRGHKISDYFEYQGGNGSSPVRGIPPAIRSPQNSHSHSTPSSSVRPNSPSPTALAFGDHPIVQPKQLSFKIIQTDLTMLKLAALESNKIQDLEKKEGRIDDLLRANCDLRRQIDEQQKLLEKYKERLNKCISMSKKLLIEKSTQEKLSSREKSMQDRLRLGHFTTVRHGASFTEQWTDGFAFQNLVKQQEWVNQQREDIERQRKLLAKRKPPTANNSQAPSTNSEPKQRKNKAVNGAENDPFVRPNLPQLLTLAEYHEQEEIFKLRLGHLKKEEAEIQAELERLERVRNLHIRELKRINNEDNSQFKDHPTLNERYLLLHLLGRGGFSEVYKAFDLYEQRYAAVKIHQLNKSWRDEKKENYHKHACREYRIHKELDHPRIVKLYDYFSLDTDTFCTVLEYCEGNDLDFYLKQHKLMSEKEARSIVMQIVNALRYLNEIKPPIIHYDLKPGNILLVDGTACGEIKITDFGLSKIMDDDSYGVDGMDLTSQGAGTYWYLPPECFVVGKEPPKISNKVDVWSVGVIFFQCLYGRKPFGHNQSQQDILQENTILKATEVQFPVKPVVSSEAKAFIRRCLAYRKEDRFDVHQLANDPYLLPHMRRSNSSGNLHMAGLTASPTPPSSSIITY

Consider `Cc1cc2nc(NCCCO)n(CC(=O)c3cc(C(C)(C)C)c(O)c(C(C)(C)C)c3)c2cc1C` [Compound 1, 2-(2-(3-Hydroxypropylamino)-5,6-dimethyl-1H-benzo[d]imidazol-1-yl)-1-(3,5-di-tert-butyl-4-hydroxyphenyl)ethanone], for which at 10 µM the inhibition in assay [1] was 70%. Also, the “suppression of IL-6 production, LPS-stimulated THP.1” value in assay [2] is listed as “failed to inhibit; also recorded: did not suppress”. Moreover, the IC50 in assay [3] (Homo sapiens, HEK293 cell line, PMA/Ionomycin, read-out: IC50, suppression of NF-κB reporter gene activity) was about 70 nM; in assay [3] (Homo sapiens, PMA/Ionomycin / PKC activators, HEK293, read-out: IC50, NF-κB reporter gene assay (cellular potency)), under 100 nM; in assay [3] (Table II, read-out: IC50, Inhibition of antigen receptor-mediated Nf-κB) it was 70 nM. Moreover, the “concentration at which maximum inhibition of NF-κB reporter is achieved” value in assay [3] (PMA/Ionomycin, HEK293) was in the range of 0.25 to 0.5 µM. In addition, the “number of protein kinases suppressed by >50%” value in assay [4] is reported as 3. In addition, the “suppression of NF-κB luciferase, anti-Lymphotoxin-β in HeLa” value in assay [5] is “failed to inhibit; also recorded: did not suppress”.
